Reference: patent US6358885B1, “Substituted phenylheterocyclic herbicides” (Mississippi State University, priority 1992, dated 2002)

Legend:
arrowhead = test: Test D paddy water application plant response rating 0 to 100; assay type: in vivo, Sagittaria spp.; conditions: approx. 21 days
Excerpt: (§1) Plastic pots were partially filled with silt loam soil. The soil was then saturated with water. […] After planting, water levels were raised to 3 cm above the soil surface and maintained at this level throughout the test. Chemical treatments were formulated in a non-phytotoxic solvent and applied directly to the paddy water. Treated plants and controls were maintained in a greenhouse for approximately 21 days, after which all species were compared to controls and visually evaluated. […] A dash (-) response means no test result.

duck salad = test: as above; assay type: in vivo, Heteranthera limosa; conditions: approx. 21 days
Excerpt: as §1

umbrella sedge = test: as above; assay type: in vivo, Cyperus difformis; conditions: approx. 21 days
Excerpt: as §1

Japonica rice [1] = test: Test E paddy water application plant response rating 0 to 100; assay type: in vivo, oryza sativa; conditions: Flood, 0 to 100 scale, approx. 21 days
Excerpt: (§2) Plastic pots were partially filled with silt loam soil. […] At testing, the water level for all plantings was raised to 2 cm above the soil surface. Chemical treatments were formulated in a non-phytotoxic solvent and applied directly to the paddy water. Treated plants and controls were maintained in a greenhouse for approximately 21 days, after which all species were compared to controls and visually evaluated. […] A dash (-) response means no test result.

Japonica rice [2] = test: Test D paddy water application plant response rating 0 to 100; assay type: in vivo, Oryza sativa; conditions: approx. 21 days
Excerpt: as §1

barnyardgrass [3] = test: Test E paddy water application plant response rating 0 to 100; assay type: in vivo, Echinochloa crus-galli; conditions: Flood, 0 to 100 scale, approx. 21 days
Excerpt: as §2

waterchestnut = test: Test D paddy water application plant response rating 0 to 100; assay type: in vivo, Eleocharis spp.; conditions: approx. 21 days
Excerpt: as §1

barnyardgrass [4] = test: as above; assay type: in vivo, Echinochloa crus-galli; conditions: approx. 21 days
Excerpt: as §1

[5] = Rate 500 g/ha, 0 to 100 scale (0 no effect, 100 complete control)

## C=C(Cl)COc1cc(-c2nn3c(c2Cl)CCCC3)c(F)cc1Cl [Compound 40]
arrowhead; Rate 4 g/ha, 0 to 100 scale
  Arrowhead plant response rating: 0
arrowhead; Rate 8 g/ha, 0 to 100 scale
  Arrowhead plant response rating: 0
arrowhead; Rate 16 g/ha, 0 to 100 scale
  Arrowhead plant response rating: 0
arrowhead; Rate 32 g/ha, 0 to 100 scale
  Arrowhead plant response rating: 0
arrowhead; Rate 64 g/ha, 0 to 100 scale
  Arrowhead plant response rating: 0
Duck salad; Rate 4 g/ha, 0 to 100 scale
  Duck salad plant response rating: 0
Duck salad; Rate 8 g/ha, 0 to 100 scale
  Duck salad plant response rating: 0
Duck salad; Rate 16 g/ha, 0 to 100 scale
  Duck salad plant response rating: 0
Duck salad; Rate 32 g/ha, 0 to 100 scale
  Duck salad plant response rating: 0
Duck salad; Rate 64 g/ha, 0 to 100 scale
  Duck salad plant response rating: 45
Umbrella sedge; Rate 4 g/ha, 0 to 100 scale
  Umbrella sedge plant response rating: 0
Umbrella sedge; Rate 8 g/ha, 0 to 100 scale
  Umbrella sedge plant response rating: 0
Umbrella sedge; Rate 16 g/ha, 0 to 100 scale
  Umbrella sedge plant response rating: 15
Umbrella sedge; Rate 32 g/ha, 0 to 100 scale
  Umbrella sedge plant response rating: 30
Umbrella sedge; Rate 64 g/ha, 0 to 100 scale
  Umbrella sedge plant response rating: 80
Japonica rice [1]; Rate 8 g/ha
  Japonica 1 plant response rating: 15
  Japonica 2 plant response rating: 10
Japonica rice [1]; Rate 16 g/ha
  Japonica 1 plant response rating: 10
  Japonica 2 plant response rating: 15
Japonica rice [1]; Rate 32 g/ha
  Japonica 1 plant response rating: 15
  Japonica 2 plant response rating: 20
Japonica rice [1]; Rate 64 g/ha
  Japonica 1 plant response rating: 15
  Japonica 2 plant response rating: 15
Japonica rice [1]; Rate 125 g/ha
  Japonica 1 plant response rating: 20
  Japonica 2 plant response rating: 20
Japonica rice [2]; Rate 4 g/ha, 0 to 100 scale
  Japonica rice plant response rating: 10
Japonica rice [2]; Rate 8 g/ha, 0 to 100 scale
  Japonica rice plant response rating: 10
Japonica rice [2]; Rate 16 g/ha, 0 to 100 scale
  Japonica rice plant response rating: 15
Japonica rice [2]; Rate 32 g/ha, 0 to 100 scale
  Japonica rice plant response rating: 20
Japonica rice [2]; Rate 64 g/ha, 0 to 100 scale
  Japonica rice plant response rating: 30
Barnyardgrass [3]; Rate 8 g/ha
  Barnyardgrass 2 plant response rating: 15
  Barnyardgrass 3 plant response rating: 25
Barnyardgrass [3]; Rate 16 g/ha
  Barnyardgrass 2 plant response rating: 25
  Barnyardgrass 3 plant response rating: 20
Barnyardgrass [3]; Rate 32 g/ha
  Barnyardgrass 2 plant response rating: 45
  Barnyardgrass 3 plant response rating: 35
Barnyardgrass [3]; Rate 64 g/ha
  Barnyardgrass 2 plant response rating: 60
  Barnyardgrass 3 plant response rating: 40
Barnyardgrass [3]; Rate 125 g/ha
  Barnyardgrass 2 plant response rating: 85
  Barnyardgrass 3 plant response rating: 50
waterchestnut; Rate 4 g/ha, 0 to 100 scale
  Waterchestnut plant response rating: 20
waterchestnut; Rate 8 g/ha, 0 to 100 scale
  Waterchestnut plant response rating: 20
waterchestnut; Rate 16 g/ha, 0 to 100 scale
  Waterchestnut plant response rating: 30
waterchestnut; Rate 32 g/ha, 0 to 100 scale
  Waterchestnut plant response rating: 30
waterchestnut; Rate 64 g/ha, 0 to 100 scale
  Waterchestnut plant response rating: 60
Barnyardgrass [4]; Rate 4 g/ha, 0 to 100 scale
  Barnyardgrass 2 plant response rating: 20
Barnyardgrass [4]; Rate 8 g/ha, 0 to 100 scale
  Barnyardgrass 2 plant response rating: 65
Barnyardgrass [4]; Rate 16 g/ha, 0 to 100 scale
  Barnyardgrass 2 plant response rating: 70
Barnyardgrass [4]; Rate 32 g/ha, 0 to 100 scale
  Barnyardgrass 2 plant response rating: 100
Barnyardgrass [4]; Rate 64 g/ha, 0 to 100 scale
  Barnyardgrass 2 plant response rating: 100

## C=CCN1C(=O)COc2cc(F)c(-c3nn4c(c3Br)CCCC4)cc21 [Compound 41]
Japonica rice [1]; Rate 8 g/ha
  Japonica 1 plant response rating: 25
  Japonica 2 plant response rating: 15
Japonica rice [1]; Rate 16 g/ha
  Japonica 1 plant response rating: 35
  Japonica 2 plant response rating: 20
Japonica rice [1]; Rate 32 g/ha
  Japonica 1 plant response rating: 45
  Japonica 2 plant response rating: 30
Japonica rice [1]; Rate 64 g/ha
  Japonica 1 plant response rating: 65
  Japonica 2 plant response rating: 45
Japonica rice [1]; Rate 125 g/ha
  Japonica 1 plant response rating: 95
  Japonica 2 plant response rating: 55
Barnyardgrass [3]; Rate 8 g/ha
  Barnyardgrass 2 plant response rating: 25
  Barnyardgrass 3 plant response rating: 20
Barnyardgrass [3]; Rate 16 g/ha
  Barnyardgrass 2 plant response rating: 30
  Barnyardgrass 3 plant response rating: 25
Barnyardgrass [3]; Rate 32 g/ha
  Barnyardgrass 2 plant response rating: 55
  Barnyardgrass 3 plant response rating: 35
Barnyardgrass [3]; Rate 64 g/ha
  Barnyardgrass 2 plant response rating: 65
  Barnyardgrass 3 plant response rating: 45
Barnyardgrass [3]; Rate 125 g/ha
  Barnyardgrass 2 plant response rating: 98
  Barnyardgrass 3 plant response rating: 55

## Fc1cc(Cl)ccc1-c1nn2c(c1Br)CCCC2 [Compound 52]
arrowhead; Rate 32 g/ha, 0 to 100 scale
  Arrowhead plant response rating: 10
arrowhead; Rate 64 g/ha, 0 to 100 scale
  Arrowhead plant response rating: 10
arrowhead; Rate 125 g/ha, 0 to 100 scale
  Arrowhead plant response rating: 40
arrowhead; Rate 250 g/ha, 0 to 100 scale
  Arrowhead plant response rating: 30
arrowhead; [5]
  Arrowhead plant response rating: 40
Duck salad; Rate 32 g/ha, 0 to 100 scale
  Duck salad plant response rating: 0
Duck salad; Rate 64 g/ha, 0 to 100 scale
  Duck salad plant response rating: 10
Duck salad; Rate 125 g/ha, 0 to 100 scale
  Duck salad plant response rating: 80
Duck salad; Rate 250 g/ha, 0 to 100 scale
  Duck salad plant response rating: 80
Duck salad; [5]
  Duck salad plant response rating: 100
Umbrella sedge; Rate 32 g/ha, 0 to 100 scale
  Umbrella sedge plant response rating: 0
Umbrella sedge; Rate 64 g/ha, 0 to 100 scale
  Umbrella sedge plant response rating: 0
Umbrella sedge; Rate 125 g/ha, 0 to 100 scale
  Umbrella sedge plant response rating: 20
Umbrella sedge; Rate 250 g/ha, 0 to 100 scale
  Umbrella sedge plant response rating: 50
Umbrella sedge; [5]
  Umbrella sedge plant response rating: 80
Japonica rice [1]; Rate 8 g/ha
  Japonica 1 plant response rating: 0
  Japonica 2 plant response rating: 10
Japonica rice [1]; Rate 16 g/ha
  Japonica 1 plant response rating: 10
  Japonica 2 plant response rating: 15
Japonica rice [1]; Rate 32 g/ha
  Japonica 1 plant response rating: 20
  Japonica 2 plant response rating: 20
Japonica rice [1]; Rate 64 g/ha
  Japonica 1 plant response rating: 35
  Japonica 2 plant response rating: 25
Japonica rice [1]; Rate 125 g/ha
  Japonica 1 plant response rating: 55
  Japonica 2 plant response rating: 40
Japonica rice [2]; Rate 32 g/ha, 0 to 100 scale
  Japonica rice plant response rating: 20
Japonica rice [2]; Rate 64 g/ha, 0 to 100 scale
  Japonica rice plant response rating: 20
Japonica rice [2]; Rate 125 g/ha, 0 to 100 scale
  Japonica rice plant response rating: 25
Japonica rice [2]; Rate 250 g/ha, 0 to 100 scale
  Japonica rice plant response rating: 25
Japonica rice [2]; [5]
  Japonica rice plant response rating: 30
Barnyardgrass [3]; Rate 8 g/ha
  Barnyardgrass 2 plant response rating: 40
  Barnyardgrass 3 plant response rating: 35
Barnyardgrass [3]; Rate 16 g/ha
  Barnyardgrass 2 plant response rating: 45
  Barnyardgrass 3 plant response rating: 55
Barnyardgrass [3]; Rate 32 g/ha
  Barnyardgrass 2 plant response rating: 100
  Barnyardgrass 3 plant response rating: 65
Barnyardgrass [3]; Rate 64 g/ha
  Barnyardgrass 2 plant response rating: 100
  Barnyardgrass 3 plant response rating: 100
Barnyardgrass [3]; Rate 125 g/ha
  Barnyardgrass 2 plant response rating: 100
  Barnyardgrass 3 plant response rating: 100
waterchestnut; Rate 32 g/ha, 0 to 100 scale
  Waterchestnut plant response rating: 0
waterchestnut; Rate 64 g/ha, 0 to 100 scale
  Waterchestnut plant response rating: 15
waterchestnut; Rate 125 g/ha, 0 to 100 scale
  Waterchestnut plant response rating: 25
waterchestnut; Rate 250 g/ha, 0 to 100 scale
  Waterchestnut plant response rating: 40
waterchestnut; [5]
  Waterchestnut plant response rating: 65
Barnyardgrass [4]; Rate 32 g/ha, 0 to 100 scale
  Barnyardgrass 2 plant response rating: 100
Barnyardgrass [4]; Rate 64 g/ha, 0 to 100 scale
  Barnyardgrass 2 plant response rating: 100
Barnyardgrass [4]; Rate 125 g/ha, 0 to 100 scale
  Barnyardgrass 2 plant response rating: 100
Barnyardgrass [4]; Rate 250 g/ha, 0 to 100 scale
  Barnyardgrass 2 plant response rating: 100
Barnyardgrass [4]; [5]
  Barnyardgrass 2 plant response rating: 100
